For one assay, the system named is ER-RARα. Briefly: ER-RARα chimeric receptor transactivation assay in transfected CV-1 cells (luciferase). Format: cell-based. The settings on record: CV-1 cells transfected with ER-RARα; highest dose tested 1 μM; FIG. 3A. As to the method: (§1) RAR transactivation assays were performed essentially as previously described. For analysis of ER-RARα chimeric receptor transactivation, 5×10^3 CV-1 cells were plated per well of a 96-well microtiter plate and were transiently transfected with Lipofectamine and the indicated DNA. Specifically, transfections were performed with 0.1 μg of pERE-tk-Luc reporter, which contains the estrogen regulated element of the Xenopus vittelogenin A2 gene inserted into the plasmid tk-Luciferase, and 0.01 μg of the SV-40 based vector pECE carrying a chimeric ER-RAR receptor consisting of the estrogen receptor A/B and DNA binding domains fused to the DEF domain of RARα, β or γ. Alternatively, cells were cotransfected with the reporter plasmid MTV-4 (R5G)-Luciferase together with the plasmid pRS-hRXRα and either pRS-RARα-P-GR, pcDNA3-RARβ-P-GR, or pcDNA3-RARγ-P-GR as previously described (Klein et al., J. Biol. Chem. 271:22692-22696 (1996)). After eighteen hours, cells were rinsed with phosphate buffered saline (PBS) and fed with D-MEM (Gibco-BRL) containing 10% activated charcoal extracted fetal bovine serum (Gemini Bio-Products). Cells were treated with retinoids for 18 hours after which they were lysed; luciferase activity was measured as previously described, with luciferase values representing the mean±SEM of quadruplicate determinations.

Assay [1] addresses T1, RARα/RXRα heterodimer bound to a DR-5 retinoic acid receptor response element (RARE) (Homo sapiens, UniProt P10276).
T1 construct: expressed in transfected cells; host or cells: CV-1 cells, transient transfection; whole cell extract
T1 sequence (P10276 1-462): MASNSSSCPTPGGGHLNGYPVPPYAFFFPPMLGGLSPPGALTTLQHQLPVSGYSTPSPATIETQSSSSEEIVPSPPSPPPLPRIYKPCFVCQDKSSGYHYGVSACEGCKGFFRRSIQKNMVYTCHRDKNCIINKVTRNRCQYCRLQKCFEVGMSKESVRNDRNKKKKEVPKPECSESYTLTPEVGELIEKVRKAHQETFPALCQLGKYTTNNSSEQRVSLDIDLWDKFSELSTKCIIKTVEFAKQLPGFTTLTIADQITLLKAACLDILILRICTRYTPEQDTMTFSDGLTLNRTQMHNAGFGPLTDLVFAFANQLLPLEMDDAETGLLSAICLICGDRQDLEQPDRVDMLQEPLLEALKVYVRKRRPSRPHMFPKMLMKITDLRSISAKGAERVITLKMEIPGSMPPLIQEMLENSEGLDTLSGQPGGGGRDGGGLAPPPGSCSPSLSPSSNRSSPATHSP
T1 sequence (P19793 1-462 partner): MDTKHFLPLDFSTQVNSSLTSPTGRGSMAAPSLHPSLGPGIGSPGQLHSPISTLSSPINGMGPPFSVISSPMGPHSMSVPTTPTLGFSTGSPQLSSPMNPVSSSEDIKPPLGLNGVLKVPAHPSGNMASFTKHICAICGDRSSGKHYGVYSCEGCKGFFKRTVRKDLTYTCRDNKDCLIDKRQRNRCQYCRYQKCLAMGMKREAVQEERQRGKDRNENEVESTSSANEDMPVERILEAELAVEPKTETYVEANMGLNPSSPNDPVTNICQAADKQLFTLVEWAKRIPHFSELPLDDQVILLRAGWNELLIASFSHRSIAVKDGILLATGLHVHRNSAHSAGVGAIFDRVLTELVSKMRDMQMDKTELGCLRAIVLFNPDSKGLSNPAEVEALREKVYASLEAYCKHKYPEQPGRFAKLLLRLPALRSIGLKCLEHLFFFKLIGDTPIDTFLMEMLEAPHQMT
The experiment in a line: DNA dependent coregulator recruitment assay (ternary complex immunoprecipitation from transfected CV-1 whole cell extracts). Format: biochemical. The settings on record: for ligand mediated dissociation of N-CoR: wild type RARα ternary complex; for SRC-1 recruitment to the wild type ternary complex: wild type RARα/RXRα, FIG. 1, FIG. 5B. As to the method: Cells were transfected and cell extracts prepared essentially as follows. For whole cell extracts, CV-1 cells were cultured with D-MEM (Gibco-BRL Life Technologies; Rockville, Md.) containing 10% activated charcoal extracted fetal bovine serum (Gemini Bio-Products). At a density of 40˜60% (15-cm plate, Falcon; Fort Worth, Tex.), cells were transiently transfected with 15 μl FuGene 6 Transfection Reagent (Roche Diagnostics) with 0.5 ug of pRS-RXRα, and 5 ug of either pcDNA3.1-hRARα-V5, pcDNA3.1-hRARβ-V5 or pcDNA3.1-hRARγ-V5 per plate. After two days, cells were rinsed twice with PBS and lysed in cold NET buffer (20 mM Tris-Cl [pH8.0], 200 mM NaCl, 1 mM EDTA, 0.1% NP-40, 10% glycerol) containing protease inhibitors, homogenized by QIAshredder (Qiagen; Valencia, Calif.), and clarified by centrifugation.
Immunoprecipitations and western analyses were performed as follows. CV-1 whole cell extract from transfected cells (1 mg) was used for each immunoprecipitation. Cell lysates were incubated with ligands on ice for 1 hour. […] After a 1 hour incubation on ice with primary antibody (mouse anti-V5, Invitrogen), protein G-agarose (SIGMA) was added and samples were rocked overnight at 4° C. […] Membranes were probed with the indicated antibodies in PBS-T buffer (PBS with 0.1% Tween-20) containing 5% nonfat dry milk, and washed in PBS-T buffer. Primary antibodies (#SC553, rabbit anti-RXRα; #SC1609, goat anti-N-CoR) were obtained from Santa Cruz Biotech and Affinity BioReagents (#MA1-840, mouse anti-SRC-1; Golden, Colo.).
The DNA dependent coregulator recruitment assay was used to measure the ability of RARα selective ligands shown in Table 2 to recruit the coactivators SRC-1 and ACTR to the RARα/RXRα heterodimer bound to a DR-5 retinoic acid receptor response element (RARE).

Assay [2] has as its system RARα-P-GR (wild type RARα). The experiment in a line: RARα-P-GR retinoid reporter transactivation in CV-1 cells. It counts as cell-based. The settings on record: FIG. 4. As to the method: as §1, with “After eighteen hours, cells were rinsed with phosphate buffered saline (PBS) and fed with D-MEM (Gibco-BRL) containing 10% activated charcoal extracted fetal bovine serum (Gemini Bio-Products).” left out
The RAR=60 R272-A mutant was analyzed for dominant negative activity using a retinoid reporter system responsive to transfected RARs recognizing RAREs containing a glucocorticoid receptor half-site (Klein et al., supra, 1996).

The next assay concerns RARα(R272-A)-P-GR. Briefly: RARα(R272-A)-P-GR retinoid reporter transactivation in CV-1 cells. The settings on record: FIG. 4. It counts as cell-based.
The test system of the next assay is AP-1. The experiment in a line: Anti-AP1 assay: phorbol ester stimulated collagenase-promoter reporter containing an AP-1 response element. It counts as cell-based. The settings on record: for anti-AP-1 activity (antagonism of TPA stimulated collagenase reporter activity): FIG. 6. As to the method:
The ability of AGN196382 to antagonize phorbol ester stimulated transcription was assayed using a collagenase-promoter reporter construct containing an AP-1 response element. […] Specifically, detection of anti-AP-1 activity by AGN196382 was only detectable at doses greater than 10 μM; similarly, detection of SRC-1 recruitment to the ternary complex by 196382 was apparent only at doses greater than 10 μM. Such elevated doses of AGN196382, while sufficient for efficacious anti-AP-1 activity, are not sufficient for efficient transcriptional activation of RARα.

Assay [3] concerns the target T2, RARα R272-A containing ternary complex (Homo sapiens, UniProt P10276, R272A).
T2 construct: expressed in transfected cells; host or cells: CV-1 cells, transient transfection; whole cell extract
T2 sequence (P10276 1-462 R272A): T1 sequence (P10276 1-462) with R272A
T2 sequence (P19793 1-462 partner): T1 sequence (P19793 1-462 partner)
Briefly: Ternary complex coregulator assay with RARα-V5 mutant R272-A. The settings on record: 1 μM ligand; FIG. 2. It counts as biochemical.
Method: Immunoprecipitations and western analyses were performed as follows. CV-1 whole cell extract from transfected cells (1 mg) was used for each immunoprecipitation. Cell lysates were incubated with ligands on ice for 1 hour. […] After a 1 hour incubation on ice with primary antibody (mouse anti-V5, Invitrogen), protein G-agarose (SIGMA) was added and samples were rocked overnight at 4° C. […] Membranes were probed with the indicated antibodies in PBS-T buffer (PBS with 0.1% Tween-20) containing 5% nonfat dry milk, and washed in PBS-T buffer. […]

Assay [4] deals with RARα/RXRα heterodimer (wild type RARα-V5 with RXRα) in the RAR/RXR/DNA ternary complex (human) (UniProt P19793). Briefly: co-immunoprecipitation of ternary complex, western blot; with 1 µM AGN194794, relative to 1 µM TTNPB. (In general: A western blot detects proteins with antibodies after separation by electrophoresis.)
For assay [5] the target is unchanged. The experiment in a line: co-immunoprecipitation of ternary complex, western blot; with 1 µM AGN196382, relative to 1 µM TTNPB.

Residue numbers refer to the chain shown, from its start.

Method for RARα(R272-A)-P-GR: RAR transactivation assays were performed essentially as previously described. For analysis of ER-RARα chimeric receptor transactivation, 5×10^3 CV-1 cells were plated per well of a 96-well microtiter plate and were transiently transfected with Lipofectamine and the indicated DNA. […] After eighteen hours, cells were rinsed with phosphate buffered saline (PBS) and fed with D-MEM (Gibco-BRL) containing 10% activated charcoal extracted fetal bovine serum (Gemini Bio-Products). Cells were treated with retinoids for 18 hours after which they were lysed; luciferase activity was measured as previously described, with luciferase values representing the mean±SEM of quadruplicate determinations.

Regarding `CC(C)c1cc(C(=O)Nc2ccc(C(=O)O)c(F)c2)c(O)c(C(C)C)c1` [AGN194365], the “transactivation at RARα” value with ER-RARα was “potent and effective transactivation properties”. Besides, the “SRC-1 recruitment compared to TTNPB” value in assay [1] (ligands 1 μM, FIG. 3B) is given as 65%. Moreover, the “ligand mediated dissociation of N-CoR” value in assay [1] is on record as “dissociation of N-CoR”.
Turning to `CC12CCC(C)(CC1)c1c2cc(C(=O)Nc2cc(F)c(C(=O)O)c(F)c2)c(O)c1Br` [AGN194794], the “transactivation at RARα” value in the assay on ER-RARα is “activated RARα, albeit with slightly less efficacy and potency”. In assay [1] (ligands 1 μM, FIG. 3B), the “p300 recruitment relative to TTNPB” value is 34%. Also, in assay [1], the “ligand mediated dissociation of N-CoR” value is “full N-CoR disengagement” and the “SRC-1 recruitment to the wild type ternary complex” value was “essentially identical for the two ligands”. The “ligand mediated dissociation of N-CoR” value in assay [1] (listed as 194794) is listed as “dissociation of N-CoR”.
Turning to `CCOc1c(C(C)C)cc(C(=O)Nc2cc(F)c(C(=O)O)c(F)c2)cc1C(C)C` [AGN196382], the “transactivation at RARα” value with ER-RARα is recorded as “no activity at RARα except at the highest dose (1 μM) tested”. Moreover, in assay [1], the “dose at which SRC-1 recruitment to the ternary complex is apparent” value was “greater than 10 μM”, the “ligand mediated dissociation of N-CoR” value is reported as “nearly absent” and the “SRC-1 recruitment to the wild type ternary complex” value is given as “essentially identical for the two ligands”. In assay [1] (ligands 1 μM, FIG. 3B), the “p300 recruitment relative to TTNPB” value is 30%. For the same compound, the “ligand mediated dissociation of N-CoR” value in assay [1] (listed as 196382) was “significantly impaired”. Also, the “activation of wild type RARα” value in assay [2] was “significantly reduced relative to TTNPB”. The “activation of RARα(R272-A)” value in the assay with RARα(R272-A)-P-GR was “not activated at all”. Further, in the assay with AP-1, the “dose at which anti-AP-1 activity is detectable” value is recorded as “greater than 10 μM” and the “anti-AP-1 activity (antagonism of TPA stimulated collagenase reporter activity)” value is given as “similarly efficacious”. For the same compound, in assay [3], the “SRC-1 recruitment to RARα R272-A ternary complex” value is on record as “lack of recruitment of SRC-1”.
For `CCOc1c(C2CC2)cc(C(=O)Nc2cc(F)c(C(=O)O)c(F)c2)cc1C(C)(C)C` [AGN196412], the “transactivation at RARα” value with ER-RARα was “no activity at RARα except at the highest dose (1 μM) tested”. Moreover, the “ACTR recruitment compared to TTNPB” value in assay [1] (ligands 1 μM, FIG. 3B) is 65%. In addition, in assay [1], the “ligand mediated dissociation of N-CoR” value is given as “significantly impaired”.
Take `C/C(=C\c1ccc(C(=O)O)cc1)c1ccc2c(c1)C(C)(C)CCC2(C)C` [TTNPB, reference compound]: in the assay on AP-1, the “anti-AP-1 activity (antagonism of TPA stimulated collagenase reporter activity)” value was “potent and efficacious anti-AP-1 activity”.
Turning to “p300 (coactivator p300/CBP) (from UniProt Q09472 2-2414)”, the figures for the % recruitment relative to TTNPB in assay [4] and in assay [5] were 34% and 30%, respectively.

Source of the values: patent US20030003517A1, “Methods of detecting dissociated nuclear hormone receptor ligands” (priority 2001, published 2003).
